Source: publication PMC9021288 (Nature Communications, 2022)
Read-outs that look alike come from different tables or passages of the source.

Tests used:
[1] = human
[2] = mouse
[3] = rat

SMILES: C[C@@H](CNC(=O)[C@H](O)C(C)(C)CO)NC(=O)c1cc(F)c(F)cc1F [MMV693183-08]
- Blood to Plasma ratio Avg(n=2) [1]: 0.97
- Blood to Plasma ratio Avg(n=2) [2]: 0.98
- Blood to Plasma ratio Avg(n=2) [3]: 0.91
